{"source": "patent US6326020A", "about": "(priority 1998, dated 2001)", "key": {"sciatic nerve [1]": {"test_system": "sciatic nerve", "settings": "rat, in vivo"}, "sciatic nerve [2]": {"test_system": "sciatic nerve", "design": "species or system Sprague-Dawley rat", "settings": "rat, in vivo"}, "sciatic nerve [3]": {"test_system": "sciatic nerve", "design": "species or system Sprague-Dawley rat", "settings": "rat, in vivo", "remark": "listed apart in the source"}, "sciatic nerve [4]": {"test_system": "sciatic nerve", "design": "species or system Sprague-Dawley rat", "settings": "rat, in vivo", "remark": "listed apart in the source"}, "sciatic nerve [5]": {"test_system": "sciatic nerve", "design": "species or system Sprague-Dawley rat", "settings": "rat, in vivo", "remark": "listed apart in the source"}, "thermal nociception": {"test_system": "thermal nociception", "settings": "rat, in vivo"}, "nerve block": {"test_system": "nerve block", "design": "species or system human", "settings": "in vivo"}}}
{"smiles": "Oc1cc2c(cc1O)CN(C(=S)NCCc1ccc(Cl)cc1)CCC2", "note": "[capsazepine]", "values": [{"measurement": "Reversal of established block from vanilloid-site 1 toxin combination", "setting": "sciatic nerve [1]", "value": "reverses established block"}]}
{"smiles": "CCCCN1CCCCC1C(=O)Nc1c(C)cccc1C", "note": "(centres unmarked) [Bupivacaine, bupivacaine]", "values": [{"measurement": "\"Missed block\" rate", "setting": "sciatic nerve [2]", "value": 0, "unit": "%"}, {"measurement": "Modalities impaired", "setting": "sciatic nerve [2]", "value": "all four modalities were impaired in all rats"}, {"measurement": "Rate of successful block", "setting": "sciatic nerve [2]", "value": 100, "unit": "%"}, {"measurement": "Duration of Effective Block, PPR", "setting": "sciatic nerve [3]", "value": "162 ± 44", "unit": "min"}, {"measurement": "Duration of Effective Block, Hop", "setting": "sciatic nerve [4]", "value": "143 ± 48", "unit": "min"}, {"measurement": "Duration of Effective Block, EPT", "setting": "sciatic nerve [5]", "value": "190 ± 56", "unit": "min"}, {"measurement": "Duration of block, thermal nociception", "setting": "thermal nociception", "value": "104 ± 18", "unit": "min"}]}
{"smiles": "COc1cc(CNC(=O)CCCC/C=C/C(C)C)ccc1O", "note": "[capsaicin, trans-8-methyl-N-vanillyl-6-nonenamide]", "values": [{"measurement": "Dose required for prolonged block with TTX, fold below threshold for block from the vanilloid alone", "setting": "sciatic nerve [1]", "value": "more than 5 fold"}, {"measurement": "Duration of prolonged block", "setting": "sciatic nerve [1]", "value": 2, "unit": "days"}, {"measurement": "Duration of prolonged block", "setting": "nerve block", "value": "3 to 4", "unit": "days"}]}
{"smiles": "C=C(C)C12CC(C)C34OC(Cc5ccccc5)(OC1C3C=C(COC(=O)Cc1ccc(O)c(OC)c1)CC1(O)C(=O)C(C)=CC14)O2", "note": "(centres unmarked) [resiniferotoxin]", "values": [{"measurement": "Dose required for prolonged block with TTX, fold below threshold for block from the vanilloid alone", "setting": "sciatic nerve [1]", "value": "more than 5 fold"}, {"measurement": "Duration of prolonged block", "setting": "sciatic nerve [1]", "value": 2, "unit": "days"}, {"measurement": "Duration of prolonged block", "setting": "nerve block", "value": "3 to 4", "unit": "days"}]}
